Data taken from patent US8093209B2, “Methods of suppressing microglial activation and systemic inflammatory responses” (Cognosci, Incorporated, priority 2002, dated 2012).

What was measured:
[1] = tested on: mice with midline closed head injury; assay: Murine closed head injury model (rotorod, weight, Morris Water Maze, survival); assay type: in vivo, mouse
Excerpt: The mice received a midline closed head injury delivered by a pneumatic impactor at a speed of 6.8 m/s.

[2] = tested on: primary rat neuronal/glial cultures exposed to NMDA; assay: NMDA-induced LDH release in primary neuronal-glial cultures; assay type: cell-based
Description: (§1) Primary neuronal-glial cultures were prepared from fetal Sprague-Dawley rat brains at 18 days of gestation as previously described (Pearlstein et al., 1998). Brains were harvested from 10-15 pups and dissected to separate cortex from meninges and subcortical structures using anatomical landmarks. Cortices were pooled and minced into 2 mm^3 pieces in a buffered salt solution supplemented with 20 mM HEPES buffer, pH 7.4, containing 0.25% trypsin. The tissue was incubated for 20 minutes at 37° C. in a 5% CO2/95% room air atmosphere, and washed twice with ice-cold, glutamine-free minimum essential medium (MEM; Life Technologies) containing 15 mM glucose, 5% fetal bovine serum (GIBCO), 5% horse serum (GIBCO), and 1% DNase-I (Sigma Chemical Co., St. Louis, Mo., USA). Tissue pieces were dissociated by trituration through a fire-polished 9-inch Pasteur pipette (I.D.=0.7 mm). The resultant suspension was centrifuged at 50×g for 10 min, the supernatant discarded, and the pellet resuspended in growth medium (MEM supplemented with 15 mM glucose, 5% fetal bovine serum, and 5% horse serum). The dissociated cells were plated to achieve a confluent monolayer using 4×10^5 cells per well in poly-D-lysine coated, 24-well culture plates (Falcon 3047; Becton Dickinson Co., Lincoln Park, N.J., USA). Cultures were maintained undisturbed at 37° C. in a humidified 5% CO2/95% room air atmosphere for 13-16 days prior to use.
Mature cultures (13-16 days in vitro) were washed with Mg^2+-free buffered salt solution (BSS) containing 20 mM HEPES buffer (pH7.4) and 1.8 mM CaCl2, prior to the addition of NMDA. Following NMDA exposure, cultures were maintained for 30 minutes at 37° C. in a 5% CO2/95% air atmosphere. The medium containing NMDA was then removed and replaced with MEM supplemented with 20 mM glucose. The cultures were returned to the incubator for 24 h. In all experiments, cellular damage was assessed at 24 h after exposure to NMDA by measurement of the activity of lactate dehydrogenase (LDH) released into the medium as described below. The non-competitive NMDA receptor antagonist, MK-801 (Tocris Cookson Ins., St. Louis, Mo.) at a concentration of 10 μM was used as a positive control. Preliminary dose-response studies were performed to determine the concentration of NMDA (100 μM) required to effect a near-maximal LDH release (ED90) as used in the present study.
The effect of human recombinant apoE (Panverra, Madison, Wis.) on 100 μM NMDA-induced LDH release was assessed and the dose-response curve was obtained (apoE: 0.1-10 μM final concentration). ApoE3, the most common human isoform, was added to the cultures 30 minutes prior to and removed following NMDA exposure. The effect of apoE peptide (133-149) on NMDA (100 μM or 300 μM)-induced LDH release was next assessed and the dose-response curve was obtained in a separate set of sister cultures that were simultaneously treated under one of the following conditions: (1) various doses of peptide (0.3 μM, 1 μM, 3 μM, 6 μM, 10 μM final concentration) were added to the culture immediately prior to and removed at the end of NMDA exposure; (2) no peptide, NMDA exposure; (3) no peptide, no NMDA exposure; (4) no peptide, NMDA exposure with 10 μM MK-801 for 30 minutes. The effect of a scrambled control peptide on NMDA-induced LDH release was similarly assessed.
The effect of time of administration of apoE peptide (133-149) on NMDA-induced LDH release was assessed in a separate set of sister cultures that were simultaneously treated under one of following conditions: (1) peptide was added to the culture medium 24 h prior to and removed immediately before exposure to NMDA; (2) peptide was added immediately prior to and removed at the end of the NMDA exposure; (3) peptide was added immediately following the 30 minutes NMDA exposure; (4) no peptide, NMDA exposure; (5) no peptide, no NMDA exposure. […]

[3] = tested on: primary rat neuronal/glial cultures exposed to NMDA; assay: NMDA-induced 45Ca uptake by primary neuronal-glial cultures; assay type: cell-based; conditions: 6 μM peptide
Description: as §1
Cellular calcium uptake from the extracellular space was assessed using ^45CaCl2 (American Radiolabeled Chemicals, St. Louis, Mo.). After washing the cultures with Mg^2+-free BSS containing 20 mM HEPES buffer, 6 μM peptide or 10 μM MK-801 was added to each well prior to and removed at the end of 100 μM NMDA exposure. ^45Ca (0.28 μCi/ml, 0.9 μCi/well) was added to each well immediately prior to NMDA exposure. The cultures were returned to the incubator and maintained at 37° C. Twenty minutes later, the exposure medium was removed and each well was washed 3 times with ice-cold Mg^2+-free BSS containing 20 mM HEPES buffer. The cells were subsequently lysed by addition of 0.2% sodium dodecyl sulfate (SDS). An aliquot from each well was added to a liquid scintillation vial containing 10 ml Cytoscint™ (ICN, Biochemical Research Product, CA) and radioactivity was determined by scintillation counting and normalized to cell count.

[4] = tested on: LPS-induced serum TNFα and IL-6 in C57-BL6 mice; assay: Intravenous LPS sepsis model, serum TNFα and IL-6 by ELISA; assay type: in vivo, mouse; conditions: peptide 6.6 mg/kg, LPS 375 μg/kg i.v.
Description: In these methods, 14-16 week old male C57-BL6 mice were injected with LPS (11.25 μg in 150 μl sterile isotonic saline, or 375 μg/kg) via the tail vein, and then immediately with vehicle (isotonic sterile saline) or ApoE (133-149) (at a dose of 200 μg, in 100 μl, or 6.6 mg/kg, prepared in isotonic saline). Serum samples were obtained in both LPS+vehicle and LPS+peptide groups (n=10 animals/group) at the following timepoints: time 0 (prior to injection), 1 hour, 3 hour and 24 hours after injection. Blood was collected by transcardial puncture, and allowed to clot for 30 minutes. Serum samples, obtained after centrifugation at 16,000 g for 5 minutes, were screened by solid phase ELISA for TNFα and IL-6. There were 20 animals per time point.

peritoneal macrophage = assay: Intracellular calcium in Fura-2/AM loaded peritoneal macrophage (Example 4); assay type: cell-based, mouse; conditions: preincubation with 100 molar excess of RAP
Description: Thioglycolate-elicited peritoneal macrophage were harvested from 8-week old C57-BL6 mice, and plated at a density of 4×10^3 cells on glass coverslips, loaded with 2.5 μM Fura-2/AM for thirty minutes, and washed with Hanks buffered solution containing […] calcium. After exposure to 5 nM human recombinant apoE3 or E4, intracellular calcium was measured by Zeiss digital microscopy.

[5] = tested on: thioglycollate-elicited peritoneal macrophages; assay: [Ca2+]i in Fura-2/AM treated single macrophages, digital imaging microscopy (Example 10); assay type: cell-based, mouse; conditions: 1000-fold molar excess RAP, 10 mM NiCl2, or 1 μg/ml pertussis toxin 12 h
Description: Macrophage Harvesting. All experiments involving animals were first approved by the Duke Institutional Animal Care and Use Committee. Pathogen-free female C57BL/6 mice and ApoE deficient mice previously backcrossed 10 times to the C57BL/6 strain were obtained from the Jackson Laboratory (Bar Harbor, Me.). Thioglycollate-elicited peritoneal macrophages were harvested by peritoneal lavage using 10 ml of ice-cold Hanks' balanced salt solution containing 10 mM HEPES and 3.5 mM NaHCO3 (HHBSS), pH 7.4. The macrophages were pelleted by centrifugation at 4° C. at ˜800×g for 10 min and resuspended in RPMI 1640 media supplemented with 25 mM HEPES, 12.5 U/ml penicillin, 6.5 mg/ml streptomycin, and 5% fetal bovine serum.
Measurement of [Ca^2+]i in apoE and peptide treated macrophage. Changes in [Ca^2+]i levels in Fura-2/AM treated single cells were quantified using digital imaging microscopy in accordance with known techniques. Macrophages were plated on glass coverslips sitting in 35 mm Petri dishes at a density of 1.5×10^5 cells/cm^2, and allowed to adhere for 2 h in a humidified 5% CO2 incubator at 37° C. The non-adherent cells were aspirated and the monolayers were washed twice with HHBSS. 4 μM Fura-2/AM was incubated with the cells for thirty min in the dark at room temperature and [Ca^2+]i was subsequently measured using a digital imaging microscope in accordance with known techniques. […] To determine if signaling resulted from ligation of the ligand to LRP, cells were preincubated with a 1000-fold molar excess of RAP or 10 mM NiCl2, both of which inhibit ligand binding to LRP, for 5 min prior to stimulation with apoE or peptide. In experiments in which the involvement of a G protein was assessed, monolayers were incubated with 1 μg/ml pertussis toxin for 12 h at 37° C. and Ca^2+ measurements were made as stated above.

Molecule | learning to find hidden platform, Morris Water Maze ([1]; 21 days after injury, p<0.05) | weight loss after closed head injury ([1]; high dose 406 ug/kg i.v.) | rotorod latency (motor deficit) after closed head injury ([1]; high dose 406 ug/kg i.v. 30 min after injury) | acute survival, Kaplan-Meier analysis ([1]; mouse, in vivo) | duration of protective effect of single dose ([1]; p<0.05) | protection against NMDA (LDH release), timing ([2]; 6 μM peptide 24 hours prior to NMDA exposure) | protection against NMDA (LDH release), timing ([2]; 6 μM peptide added following NMDA exposure) | protection against NMDA (LDH release), timing ([2]; 6 μM peptide concurrent with 100 μM NMDA) | protection against NMDA-induced cell damage, truncated peptides ([2]; 6 μM peptide, 100 μM NMDA) | peptide concentration at which protection was first observed ([2]; 100 μM NMDA) [μm] | peptide concentration of maximal protection ([2]; 100 μM NMDA) [µM] | protection against NMDA toxicity (LDH release) ([2]; 300 μM NMDA) | protection against NMDA toxicity (LDH release), dose response ([2]; peptide 0.3-10 μM, 100 μM NMDA) | NMDA-induced calcium influx compared to NMDA alone ([3]; 100 μM NMDA) | calcium influx in absence of NMDA ([3]; no NMDA) | serum IL-6 versus LPS+vehicle ([4]; 1 and 3 hours post-injection) | serum TNFα versus LPS+vehicle ([4]; 1 hour post-injection) | block of ApoE-induced intracellular calcium mobilization (peritoneal macrophage) | effect of preincubation on apoE-induced [Ca2+]i increase [5]
LRVRLAS HLRKLRKRLL (LRVRLASHLRKLRKRLL; fragment of receptor-binding domain of human ApoE; listed as Homo sapiens) [ApoE (133-149), 17-mer, ApoE positions 133-149] | appeared to provide protection in learning deficits | protected animals from this motor deficit (FIG. 10A), and concomitant weight loss | protected animals from this motor deficit | significant improvement in acute survival | sustained for five days following injury | modest but significant protection | no protection | robust protection | completely blocked 100 μM NMDA-induced cell death | 3 | 6 | failed to protect cells at any peptide concentration | robust, dose-dependent protection | significantly decreased calcium influx | no direct effect on calcium influx | significantly reduced | significantly reduced |  | 
RAP: 39 kD protein that blocks the binding of all known ligands to LRP (protein, UniProt P30533 35-357, looked up) Alpha-2-macroglobulin …: YSREKNQPKPSPKRESGEEFRMEKLNQLWEKAQRLHLPPVRLAELHADLKIQERDELAWKKLKLDGLDEDGEKEARLIRNLNVILAKYGLDGKKDARQVTSNSLSGTQEDGLDDPRLEKLWHKAKTSGKFSGEELDKLWREFLHHKEKVHEYNVLLETLSRTEEIHENVISPSDLSDIKGSVLHSRHTELKEKLRSINQGLDRLRRVSHQGYSTEAEFEEPRVIDLWDLAQSANLTDKELEAFREELKHFEAKIEKHNHYQKQLEIAHEKLRHAESVGDGERVSRSREKHALLEGRTKELGYTVKKHLQDLSGRISRARHNEL |  |  |  |  |  |  |  |  |  |  |  |  |  |  |  |  |  | did not block this effect | markedly attenuated the [Ca^2+]i increases
